How the values were obtained:
[1] = Incubation with AIA rat macrophage cell lysates; assay type: in vitro ADME; settings: AIA rat macrophage lysate, pH 4.5, 37° C., 2 hours
Description: Prior to immunization with adjuvant, female Lewis rats were fed a folate-deficient diet (Harlan Teklad, Indianapolis, Ind.) for approximately 10 days to reduce serum folate competition from high-folate-containing regular rodent chow. The rats were then inoculated intradermally (at the base of tail) with 0.5 mg heat-killed M. butyricum (BD Diagnostic Systems, Franklin Lakes, N.J.) in 100 μL light mineral oil (Sigma-Aldrich, St Louis, Mo., USA). The rats were then allowed to develop arthritis scores between 3 and 4 as described in Lu et al. (Arthritis Research & Therapy 2011, 13:R56). After rats developed severe joint inflammation, AIA rat peritoneal cells were isolated, plated, and whole cell lysates were prepared as described above with the exception that the lysates were resuspended in 0.1 M sodium acetate buffer, pH 4.5, to make a concentration of cell lysates equivalent to 10 million cells/mL of 0.1 M sodium acetate buffer, pH 4.5.
To 100 μL AIA rat macrophage, RAW264.7 or THP-1 FRβ cell lysates (each containing 10 million cells/mL 0.1 M sodium acetate, Ph 4.5) was added 2 μL of a 50 μM solution of EC2319 or EC1669 (Endocyte, Inc.). The solutions were incubated at 37° C. in a heat block (VWR International, Radnor, Pa.) for 2 hours. The reaction was terminated by the addition of 5 µL of stabilizer solution and 100 μL of acetonitrile containing d5-aminopterin (Endocyte, Inc.). […]

[2] = Release of aminopterin in rat hepatic cytosol; assay type: in vitro ADME; settings: 5% rat liver cytosol, 1 hour; for pH dependence of aminopterin release from the conjugate: pH 4.5, 6.0, 7.4, 37° C.
Description: (§1) EC2319 and EC1669 were incubated in 5% rat, dog, and human hepatic cytosol at different pH's to look at release of aminopterin from these conjugates. Liver cytosols from male Sprague-Dawley rats (Lot No. 1110428), male beagle dogs (Lot no. 1310024), and male humans (Lot No. 0710493), all containing 10 mg/mL protein, were obtained from Xenotech LLC (Lenexa, Kans.). These were diluted 20× in either 0.5 M sodium acetate buffer, pH 4.5, 0.5 M sodium acetate buffer, 6.0, or 0.5 M potassium phosphate buffer, pH 7.4 in a final volume of 500 μL. Reactions were initiated by the addition of 1 μL of either EC2319 or EC1669 and the reaction mixtures incubated at 37° C. for 1 hour. At the end of the incubation, a 100 μL aliquot was withdrawn into a cluster tube and the reaction was terminated by the addition of 5 μL of stabilizer solution (containing 8.5 mg/ml N-Maleoyl-β-alanine, 20 mg/mL mannitol and 0.075% acetic acid) and 100 μL of acetonitrile containing d5-aminopterin. The tubes were vortexed and then centrifuged at 4000 rpm for 10 minutes (Eppendorf centrifuge 5810R). 150 μL of the supernatant was transferred to 96-well plates and the acetonitrile evaporated off under nitrogen at 35° C. for 5 minutes. The extract was diluted with 50 μL of mobile phase A. The plate was vortexed on a VX-2500 multi-tube vortexer (VWR International, Radnor, Pa.) and the extract analyzed by LC-MS/MS.

[3] = Release of aminopterin in human hepatic cytosol; assay type: in vitro ADME; settings: 5% human liver cytosol, 1 hour; for pH dependence of aminopterin release from the conjugate: pH 4.5, 6.0, 7.4, 37° C.
Description: as §1

[4] = test system: Rat adjuvant arthritis (AIA); test: Rat adjuvant arthritis (AIA) treatment studies; assay type: in vivo
Description: Female Lewis rats (175-200 g) were purchased from Harlan Sprague Dawley (Indianapolis, Ind.) and allowed to acclimate for 1 week. Generally, rats were fed a folate-deficient diet (Harlan Teklad) for 9-10 days prior to arthritis induction.
Rat adjuvant arthritis (AIA) was induced by intradermal inoculation (at the base of tail) of 0.45-0.46 mg of heat-killed Mycobacteria butyricum (BD Diagnostic Systems, Sparks, Md.) in 100 μL light mineral oil (Sigma). […] During the course of disease development, animals were weighed at least 3 times a week. Paw edema (degree of arthritis) were scored 3 times a week as follows: 0=no edema or arthritis; 1=swelling in one type of joint; 2=swelling in two types of joint; 3=swelling in three types of joint; 4=swelling of the entire paw. A total score for each rat is calculated by adding up the scores for each of the four paws, giving a maximum of 16 per animal.
On the first day of treatment, rats with desired arthritis scores were distributed evenly across the control and treatment groups (n=5). […] All compounds and conjugates were administered subcutaneously (s.c.) starting 9 days after arthritis induction with biweekly (BIW, Mondays and Thursdays) or once-a-week (QW, Mondays) dosing for two consecutive weeks. At the completion of each study (˜4 days after the last treatment), rats were euthanized by CO2 asphyxiation and processed for paw weight (cut at the hairline) and spleen weight.
The rat AIA model resembles many characteristics of human rheumatoid arthritis and it is very aggressive. […] The animals in the AIA control group were left untreated.

Compound	aminopterin release [1]	pH dependence of aminopterin release from the conjugate [2]	pH dependence of aminopterin release from the conjugate [3]	body weight ([4]; Study 2, 500 nmol/kg, BIW)	residual disease ([4]; Study 2, 500 nmol/kg, BIW)	anti-arthritic activity ([4]; Study 3, 500 nmol/kg, BIW)	body weight ([4]; Study 3, 500 nmol/kg, BIW)	magnitude of aminopterin release ([2]; 37° C.)	magnitude of aminopterin release ([3]; 37° C.)	alleviating AIA symptoms (arthritis score, paw weight, spleen weight) ([4]; Study 1, 1000 nmol/kg, QW, s.c., two consecutive weeks)	anti-arthritic activity with concurrent EC0923 (arthritis score, paw weight, spleen weight, body weight) ([4]; Study 2, 500 nmol/kg BIW plus 500-fold molar excess EC0923 (250 μmol/kg))	reducing arthritis scores and paw weights ([4]; Study 2, 500 nmol/kg, BIW, s.c., two consecutive weeks)	decreasing arthritis score, paw weight, and spleen weight ([4]; Study 3, 500 nmol/kg, BIW, two consecutive weeks)
N=c1[nH]c(N)nc2ncc(CNc3ccc(C(=O)N[C@@H](CCC(=O)NNC(=O)OCCSSC[C@@H](NC(=O)[C@H](CCC(=O)NC[C@H](O)[C@@H](O)[C@H](O)[C@H](O)CO)NC(=O)[C@@H](CCC(=O)O)NC(=O)[C@H](CCC(=O)NC[C@H](O)[C@@H](O)[C@H](O)[C@H](O)CO)NC(=O)[C@@H](CCC(=O)O)NC(=O)[C@H](CCC(=O)NC[C@H](O)[C@@H](O)[C@H](O)[C@H](O)CO)NC(=O)CC[C@H](NC(=O)c4ccc(NCc5cnc6nc(N)[nH]c(=O)c6n5)cc4)C(=O)O)C(=O)O)C(=O)O)cc3)nc12 [EC1669, reference compound]	greater from EC1669 than from EC2319	broad pH specificity	highest at pH 4.5	maintained a healthier body weight than EC2285	minimal residual diseases	significant anti-arthritic activity	maintained a good body weight						
COC(=O)[C@H](CSSC(C)(C)[C@H](NC(=O)[C@H](CCC(=O)NC[C@H](O)[C@@H](O)[C@H](O)[C@H](O)CO)NC(=O)[C@H](CCC(=O)O)NC(=O)[C@H](CCC(=O)NC[C@H](O)[C@@H](O)[C@H](O)[C@H](O)CO)NC(=O)[C@H](CCC(=O)O)NC(=O)[C@H](CCC(=O)NC[C@H](O)[C@@H](O)[C@H](O)[C@H](O)CO)NC(=O)CC[C@H](NC(=O)c1ccc(NCc2cnc3nc(N)[nH]c(=O)c3n2)cc1)C(=O)O)C(=O)O)NC(=O)CC[C@H](NC(=O)c1ccc(NCc2cnc3nc(N)nc(N)c3n2)cc1)C(=O)O [EC2319]	aminopterin release was observed	broad pH specificity	highest at pH 4.5	maintained a healthier body weight than EC2285	minimal residual diseases	significant anti-arthritic activity	maintained a good body weight	lower than that from EC1669	lower than that from EC1669	as effective as EC1669, EC2285, and EC2318	fully blocked by EC0923	equally efficacious as EC1669 but significantly more active than EC2285	as efficacious as EC1669
